Data from patent US7728019B2, “Biphenylcarboxamides” (priority 2002, dated 2010).

Tests used:
[1] = logP determination by HPLC on reverse-phase column (C 18), acidic range pH 2.3; assay type: physicochemical; conditions: reverse-phase HPLC column (C 18), HPLC, C 18 reverse-phase, 43° C.
Protocol: The logP values given in Table 1 were determined with EEC Directive 79/831 Annex V.A8 by HPLC (High Performance Liquid Chromatography) on a reverse-phase column (C 18). Temperature: 43° C. Mobile phases for the determination in the acidic range (pH 2.3): 0.1% aqueous phosphoric acid, acetonitrile; linear gradient from 10% acetonitrile to 90% acetonitrile. Calibration was carried out using unbranched alkan-2-ones (having 3 to 16 carbon atoms) with known logP values (determination of the logP values by the retention times using linear interpolation between two successive alkanones).

Botrytis cinerea = test: Botrytis test (bean)/protective; assay type: in vivo; conditions: 48 h, bean plants, protective, application rate 500 g/ha, evaluation 2 days after inoculation, read-out: Efficacy in %
Protocol: (§1) To produce a suitable preparation of active compound, 1 part by weight of active compound is mixed with the stated amounts of solvents and emulsifier, and the concentrate is diluted with water to the desired concentration.
To test for protective activity, young plants are sprayed with the preparation of active compound at the stated application rate. After the spray coating has dried on, 2 small pieces of agar colonized by Botrytis cinerea are placed onto each leaf. The inoculated plants are placed in a dark chamber at about 20° C. and 100% relative atmospheric humidity.
2 days after the inoculation, the size of the infected areas on the leaves is evaluated. 0% means an efficacy which corresponds to that of the control, whereas an efficacy of 100% means that no infection is observed.

Alternaria solani = test: Alternaria test (tomato)/protective; assay type: in vivo; conditions: tomato plants, protective; application rate 750 g/ha; evaluation 7 days after inoculation
Protocol: (§2) To produce a suitable preparation of active compound, 1 part by weight of active compound is mixed with the stated amounts of solvent and emulsifier, and the concentrate is diluted with water to the desired concentration.
To test for protective activity, young tomato plants are sprayed with the preparation of active compound at the stated application rate. 1 day after the treatment, the plants are inoculated with a spore suspension of Alternaria solani and then remain at 100% relative atmospheric humidity and 20° C. for 24 hours. The plants then remain at 96% relative atmospheric humidity and a temperature of 20° C.
Evaluation is carried out 7 days after the inoculation. 0% means an efficacy which corresponds to that of the control, whereas an efficacy of 100% means that no infection is observed.

[2] = test system: apple scab pathogen Venturia inaequalis; test: Venturia test (apple)/protective; assay type: in vivo; conditions: apple plants, protective; application rate 100 g/ha; evaluation 10 days after inoculation
Protocol: as §1
To test for protective activity, young plants are sprayed with the preparation of active compound at the stated application rate. After the spray coating has dried on, the plants are inoculated with an aqueous conidia suspension of the apple scab pathogen Venturia inaequalis and then remain in an incubation cabin at about 20° C. and 100% relative atmospheric humidity for 1 day.
The plants are then placed in a greenhouse at about 21° C. and a relative atmospheric humidity of about 90%.
(§3) Evaluation is carried out 10 days after the inoculation. 0% means an efficacy which corresponds to that of the control, whereas an efficacy of 100% means that no infection is observed.

Puccinia recondita = test: Puccinia test (wheat)/protective; assay type: in vivo; conditions: 240 h, wheat plants, protective, application rate 500 g/ha, evaluation 10 days after inoculation, read-out: Efficacy in %
Protocol: as §2
To test for protective activity, young plants are inoculated with a spore suspension of Puccinia recondita in a 0.1% strength aqueous agar solution. After the spray coating has dried on, the plants are sprayed with the preparation of active compound at the stated application rate. The plants remain in an incubation cabin at 20° C. and 100% relative atmospheric humidity for 24 hours.
The plants are then placed in a greenhouse at a temperature of about 20° C. and a relative atmospheric humidity of 80% to promote the development of rust pustules.
as §3

[3] = test system: eggs of the diamond back moth (Plutella xylostella); test: Plutella test; assay type: in vivo; conditions: active compound concentration 1000 ppm, on synthetic feed
Protocol: To produce a suitable preparation of active compound, 1 part by weight of active compound is mixed with the stated amount of solvent, and the concentrate is diluted with methanol to the desired concentrations.
A stated amount of the preparation of active compound of the desired concentration is pipetted onto a standardized amount of synthetic feed. After the methanol has evaporated, about 200-300 eggs of the diamond back moth (Plutella xylostella) are placed onto the feed.
After the desired period of time, the kill of the eggs in % is determined. 100% means that all animals have been killed; 0% means that none of the animals have been killed.

SMILES | chromatographic logP [1] | pest or weed control at 500 g/ha (Botrytis cinerea) [%] | Efficacy in % (Alternaria solani) [%] | Efficacy in % [2] [%] | pest or weed control at 500 g/ha (Puccinia recondita) [%] | Kill rate in % after 7 d [3] [%]
Cc1nc(C(F)(F)F)c(C(=O)Nc2ccccc2-c2ccc(/C=N\OCC3CC3)cc2)s1 [Compound 2] | 4.16 | 98 | 90 |  |  | 
C=CCO/N=C\c1ccc(-c2ccccc2NC(=O)c2sc(C)nc2C(F)(F)F)cc1 [Compound 5] | 3.91 | 83 | 100 | 100 |  | 
C=CCO/N=C\c1ccc(-c2ccccc2NC(=O)c2c(C)nn(C)c2F)cc1 [Compound 6] | 3.47 | 98 | 100 | 97 | 100 | 

The next lines start with results.

chromatographic logP [1] | SMILES | pest or weed control at 500 g/ha (Botrytis cinerea) [%] | Efficacy in % (Alternaria solani) [%] | Efficacy in % [2] [%] | pest or weed control at 500 g/ha (Puccinia recondita) [%] | Kill rate in % after 7 d [3] [%]
3.3 | C=CCO/N=C\c1ccc(-c2ccccc2NC(=O)c2cccnc2Cl)cc1 [Compound 12] |  | 100 |  |  | 
3.92 | C=CCO/N=C(/C)c1ccc(-c2ccccc2NC(=O)c2sc(C)nc2C(F)F)cc1 [Compound 15] |  |  |  | 100 | 95
4.69 | CC1=C(C(=O)Nc2ccccc2-c2ccc(/C(C)=N\OCC3CC3)cc2)SCCO1 [Compound 22] |  |  |  |  | 95
